Reference: ChEMBL document CHEMBL2021760, “4-(1-Phenyl-1H-pyrazol-4-yl)quinolines as novel, selective and brain penetrant metabotropic glutamate receptor 4 positive allosteric modulators” (Bioorg Med Chem Lett, 2012)
pEC50, pIC50: −log10 of the molar value. ≈ marks a conversion by molar mass, not a printed value. Calls of active or inactive are those of the source. The calls are words filed in the database; no cut-off is given here.

Key:
[1] = molecular target: T1, Metabotropic glutamate receptor 4 (Homo sapiens, UniProt Q14833); experiment: Positive allosteric modulation of human mGlu4 receptor expressed in BHK cells assessed as potentiation of glutamate-induced calcium mobilization by FLIPR analysis relative to PHCCC; format: functional, cell-based
[2] = molecular target: T1, Metabotropic glutamate receptor 4; experiment: Positive allosteric modulation of human mGlu4 receptor expressed in BHK cells assessed as potentiation of glutamate-induced calcium mobilization by FLIPR analysis; format: functional, cell-based
[3] = molecular target: Metabotropic glutamate receptor 8 (Homo sapiens) (UniProt O00222); experiment: Positive allosteric modulation of mGlu8 receptor at 10 uM
[4] = molecular target: Metabotropic glutamate receptor 1 (Homo sapiens) (UniProt Q13255); experiment: Agonist activity at mGlu1 receptor at 10 uM; format: functional
Brain [5] = experiment: Drug uptake in rat brain at 30 mg/kg, sc; format: ADME, organism-based; set-up: dose 30 mg/kg, route subcutaneous; conditions: in vivo
[6] = Kinetic solubility of the compound at pH 4.0; format: physicochemical; conditions: buffer, read-out: Kinetic_solubility
[7] = Ratio of drug level in brain to plasma in rat at 30 mg/kg, sc; format: ADME, organism-based; set-up: dose 30 mg/kg, route subcutaneous; conditions: read-out: BPR
CYP3A4 = CYP3A4 (Homo sapiens, UniProt P08684); experiment: Inhibition of CYP3A4 at 5 uM; format: ADME
[8] = molecular target: Metabotropic glutamate receptor 7 (Homo sapiens) (UniProt Q14831); experiment: Positive allosteric modulation of mGlu7 receptor at 10 uM
Brain [9] = experiment: Fraction unbound in rat brain; format: ADME, tissue-based
[10] = molecular target: Voltage-gated inwardly rectifying potassium channel KCNH2 (Homo sapiens, UniProt Q12809); experiment: Inhibition of human ERG by electrophysiology assay
[11] = Inhibition of benzodiazepine receptor
[12] = molecular target: Metabotropic glutamate receptor 2 (Homo sapiens) (UniProt Q14416); experiment: Negative allosteric modulation of mGlu2 receptor at 10 uM
[13] = molecular target: T2, Melatonin receptor type 1A (Homo sapiens, UniProt P48039); experiment: Agonist activity at MT1 relative to control; format: functional
[14] = molecular target: Metabotropic glutamate receptor 3 (Homo sapiens) (UniProt Q14832); experiment: Positive allosteric modulation of mGlu3 receptor at 10 uM
[15] = molecular target: Metabotropic glutamate receptor 1 (Homo sapiens) (UniProt Q13255); experiment: Positive allosteric modulation of mGlu1 receptor at 10 uM
[16] = molecular target: Metabotropic glutamate receptor 6 (Homo sapiens) (UniProt O15303); experiment: Positive allosteric modulation of mGlu6 receptor at 10 uM
CYP2C9 = CYP2C9 (Homo sapiens, UniProt P11712); experiment: Inhibition of CYP2C9 at 5 uM; format: ADME
[17] = molecular target: Metabotropic glutamate receptor 1 (Homo sapiens) (UniProt Q13255); experiment: Negative allosteric modulation of mGlu1 receptor at 10 uM
[18] = molecular target: Metabotropic glutamate receptor 6 (Homo sapiens) (UniProt O15303); experiment: Negative allosteric modulation of mGlu6 receptor at 10 uM
[19] = Kinetic solubility of the compound at pH 7.4; format: physicochemical; conditions: buffer, read-out: Kinetic_solubility
Plasma = experiment: Plasma concentration in rat at 30 mg/kg, sc; format: ADME, organism-based; set-up: dose 30 mg/kg, route subcutaneous; conditions: in vivo
[20] = Lipophilicity, log D of compound at pH 7.4; format: physicochemical; conditions: buffer
[21] = molecular target: Metabotropic glutamate receptor 5 (Homo sapiens) (UniProt P41594); experiment: Agonist activity at mGlu5 receptor at 10 uM; format: functional
[22] = molecular target: Metabotropic glutamate receptor 8 (Homo sapiens) (UniProt O00222); experiment: Negative allosteric modulation of mGlu8 receptor at 10 uM
[23] = molecular target: Metabotropic glutamate receptor 6 (Homo sapiens) (UniProt O15303); experiment: Agonist activity at mGlu6 receptor at 10 uM; format: functional
[24] = molecular target: T1, Metabotropic glutamate receptor 4; experiment: Positive allosteric modulation of human mGlu4 receptor expressed in BHK cells assessed as fold shift in calcium mobilization by FLIPR analysis relative to glutamate; format: functional, cell-based
[25] = molecular target: Metabotropic glutamate receptor 8 (Homo sapiens) (UniProt O00222); experiment: Agonist activity at mGlu8 receptor at 10 uM; format: functional
CYP2B6 = molecular target: T3, CYP2B6 (Homo sapiens, UniProt P20813); experiment: Inhibition of CYP2B6 at 5 uM; format: ADME
T3 sequence (P20813 whole entry): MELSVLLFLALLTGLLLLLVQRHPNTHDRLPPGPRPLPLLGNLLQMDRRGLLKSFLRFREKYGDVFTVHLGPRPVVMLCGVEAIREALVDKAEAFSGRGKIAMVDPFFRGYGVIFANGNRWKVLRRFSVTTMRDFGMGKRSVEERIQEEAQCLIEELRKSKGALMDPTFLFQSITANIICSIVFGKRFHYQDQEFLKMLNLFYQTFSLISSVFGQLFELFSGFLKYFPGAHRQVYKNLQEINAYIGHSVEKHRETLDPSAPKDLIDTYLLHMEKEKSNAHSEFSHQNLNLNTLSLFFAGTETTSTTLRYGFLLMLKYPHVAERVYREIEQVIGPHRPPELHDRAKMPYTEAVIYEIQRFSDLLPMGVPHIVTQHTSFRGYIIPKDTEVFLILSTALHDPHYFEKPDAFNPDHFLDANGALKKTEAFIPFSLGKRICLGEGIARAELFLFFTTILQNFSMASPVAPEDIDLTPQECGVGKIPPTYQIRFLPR

[26] = molecular target: Metabotropic glutamate receptor 7 (Homo sapiens) (UniProt Q14831); experiment: Agonist activity at mGlu7 receptor at 10 uM; format: functional
[27] = molecular target: Metabotropic glutamate receptor 2 (Homo sapiens) (UniProt Q14416); experiment: Positive allosteric modulation of mGlu2 receptor at 10 uM
[28] = Plasma protein binding in rat; format: ADME, cell-free; conditions: read-out: PPB (converted)
Cerebrospinal fluid = experiment: Drug uptake in rat CSF at 30 mg/kg, sc; format: ADME, organism-based; set-up: dose 30 mg/kg, route subcutaneous; conditions: in vivo
[29] = molecular target: Metabotropic glutamate receptor 3 (Homo sapiens) (UniProt Q14832); experiment: Agonist activity at mGlu3 receptor at 10 uM; format: functional
[30] = molecular target: T2, Melatonin receptor type 1A; experiment: Agonist activity at MT1; format: functional
[31] = molecular target: Metabotropic glutamate receptor 7 (Homo sapiens) (UniProt Q14831); experiment: Negative allosteric modulation of mGlu7 receptor at 10 uM
[32] = molecular target: Metabotropic glutamate receptor 5 (Homo sapiens) (UniProt P41594); experiment: Negative allosteric modulation of mGlu5 receptor at 10 uM
[33] = molecular target: Metabotropic glutamate receptor 2 (Homo sapiens) (UniProt Q14416); experiment: Agonist activity at mGlu2 receptor at 10 uM; format: functional
[34] = molecular target: 5-hydroxytryptamine receptor 2B (Homo sapiens, UniProt P41595); experiment: Inhibition of 5HT2B
[35] = molecular target: Metabotropic glutamate receptor 5 (Homo sapiens) (UniProt P41594); experiment: Positive allosteric modulation of mGlu5 receptor at 10 uM
[36] = molecular target: Metabotropic glutamate receptor 3 (Homo sapiens) (UniProt Q14832); experiment: Negative allosteric modulation of mGlu3 receptor at 10 uM
Rattus norvegicus = organism: Rattus norvegicus; experiment: Intrinsic clearance in rat; format: ADME, organism-based; conditions: in vivo

Chain of Metabotropic glutamate receptor 2 (Homo sapiens) (Q14416 19-872 limits assumed): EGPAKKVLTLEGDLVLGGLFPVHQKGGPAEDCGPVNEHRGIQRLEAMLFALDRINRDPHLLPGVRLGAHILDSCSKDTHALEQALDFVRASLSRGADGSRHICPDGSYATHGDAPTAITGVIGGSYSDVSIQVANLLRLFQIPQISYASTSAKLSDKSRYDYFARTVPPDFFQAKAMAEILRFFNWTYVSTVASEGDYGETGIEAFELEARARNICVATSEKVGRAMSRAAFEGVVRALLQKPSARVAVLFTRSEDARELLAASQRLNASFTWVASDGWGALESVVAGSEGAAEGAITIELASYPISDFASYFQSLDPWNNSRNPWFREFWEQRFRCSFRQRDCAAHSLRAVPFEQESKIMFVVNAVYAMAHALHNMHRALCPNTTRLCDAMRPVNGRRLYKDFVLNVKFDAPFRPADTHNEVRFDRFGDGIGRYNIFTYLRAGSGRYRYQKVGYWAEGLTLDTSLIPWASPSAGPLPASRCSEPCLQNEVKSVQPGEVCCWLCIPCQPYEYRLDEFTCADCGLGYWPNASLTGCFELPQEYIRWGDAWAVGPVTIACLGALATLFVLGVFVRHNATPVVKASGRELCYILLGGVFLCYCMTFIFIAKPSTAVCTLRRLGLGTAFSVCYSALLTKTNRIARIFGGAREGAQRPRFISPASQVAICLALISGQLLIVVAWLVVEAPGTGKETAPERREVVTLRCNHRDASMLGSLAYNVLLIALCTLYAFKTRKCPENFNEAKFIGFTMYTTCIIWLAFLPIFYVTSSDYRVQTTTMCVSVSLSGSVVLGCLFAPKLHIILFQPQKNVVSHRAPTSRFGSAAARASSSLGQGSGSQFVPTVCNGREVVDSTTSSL
Chain of Metabotropic glutamate receptor 3 (Homo sapiens) (Q14832 23-879 limits assumed): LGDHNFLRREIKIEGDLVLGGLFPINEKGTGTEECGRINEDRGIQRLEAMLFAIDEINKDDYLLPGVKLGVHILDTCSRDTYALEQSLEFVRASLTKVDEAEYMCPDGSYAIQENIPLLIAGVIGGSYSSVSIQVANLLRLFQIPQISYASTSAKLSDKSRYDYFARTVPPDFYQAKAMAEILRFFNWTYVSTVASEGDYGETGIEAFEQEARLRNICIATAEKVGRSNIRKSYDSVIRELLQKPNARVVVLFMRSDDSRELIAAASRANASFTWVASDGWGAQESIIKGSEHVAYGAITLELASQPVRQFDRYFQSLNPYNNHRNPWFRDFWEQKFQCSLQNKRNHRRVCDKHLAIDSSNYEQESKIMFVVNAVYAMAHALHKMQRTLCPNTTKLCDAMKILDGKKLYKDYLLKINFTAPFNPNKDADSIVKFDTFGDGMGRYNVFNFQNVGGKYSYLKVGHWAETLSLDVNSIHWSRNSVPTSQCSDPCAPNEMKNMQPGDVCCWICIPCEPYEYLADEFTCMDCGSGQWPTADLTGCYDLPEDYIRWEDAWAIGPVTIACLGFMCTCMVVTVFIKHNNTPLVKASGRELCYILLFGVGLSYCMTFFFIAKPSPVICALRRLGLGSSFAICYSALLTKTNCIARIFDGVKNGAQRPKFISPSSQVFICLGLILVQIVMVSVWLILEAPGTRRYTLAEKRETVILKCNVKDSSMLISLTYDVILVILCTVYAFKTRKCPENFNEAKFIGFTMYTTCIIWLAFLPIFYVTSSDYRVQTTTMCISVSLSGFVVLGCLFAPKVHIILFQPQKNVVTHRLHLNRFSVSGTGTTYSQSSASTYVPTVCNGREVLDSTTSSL
Chain of Metabotropic glutamate receptor 6 (Homo sapiens) (O15303 whole entry): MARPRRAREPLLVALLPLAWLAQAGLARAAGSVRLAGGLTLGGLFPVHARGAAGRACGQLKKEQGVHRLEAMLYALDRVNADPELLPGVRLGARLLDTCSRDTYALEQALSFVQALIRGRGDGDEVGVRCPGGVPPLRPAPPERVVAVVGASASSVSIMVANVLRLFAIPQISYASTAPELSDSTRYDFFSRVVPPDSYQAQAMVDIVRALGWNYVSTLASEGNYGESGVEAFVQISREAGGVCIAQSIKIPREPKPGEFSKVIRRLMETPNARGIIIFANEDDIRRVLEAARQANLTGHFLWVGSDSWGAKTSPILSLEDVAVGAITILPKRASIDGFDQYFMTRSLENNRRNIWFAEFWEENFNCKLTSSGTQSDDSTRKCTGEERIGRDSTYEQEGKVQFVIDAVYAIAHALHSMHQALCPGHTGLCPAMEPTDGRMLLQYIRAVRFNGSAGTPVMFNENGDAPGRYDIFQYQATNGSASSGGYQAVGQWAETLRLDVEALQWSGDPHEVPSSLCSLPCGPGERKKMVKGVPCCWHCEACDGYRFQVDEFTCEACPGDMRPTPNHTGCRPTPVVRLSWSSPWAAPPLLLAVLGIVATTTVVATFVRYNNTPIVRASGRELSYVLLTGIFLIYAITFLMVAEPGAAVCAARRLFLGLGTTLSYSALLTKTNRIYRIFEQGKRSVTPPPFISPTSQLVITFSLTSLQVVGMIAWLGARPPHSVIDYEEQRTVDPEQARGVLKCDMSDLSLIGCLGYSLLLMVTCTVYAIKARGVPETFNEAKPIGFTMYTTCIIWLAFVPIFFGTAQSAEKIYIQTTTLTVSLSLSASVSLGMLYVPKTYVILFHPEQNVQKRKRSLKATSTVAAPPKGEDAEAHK
Chain of Metabotropic glutamate receptor 1 (Homo sapiens) (Q13255 19-1194 limits assumed): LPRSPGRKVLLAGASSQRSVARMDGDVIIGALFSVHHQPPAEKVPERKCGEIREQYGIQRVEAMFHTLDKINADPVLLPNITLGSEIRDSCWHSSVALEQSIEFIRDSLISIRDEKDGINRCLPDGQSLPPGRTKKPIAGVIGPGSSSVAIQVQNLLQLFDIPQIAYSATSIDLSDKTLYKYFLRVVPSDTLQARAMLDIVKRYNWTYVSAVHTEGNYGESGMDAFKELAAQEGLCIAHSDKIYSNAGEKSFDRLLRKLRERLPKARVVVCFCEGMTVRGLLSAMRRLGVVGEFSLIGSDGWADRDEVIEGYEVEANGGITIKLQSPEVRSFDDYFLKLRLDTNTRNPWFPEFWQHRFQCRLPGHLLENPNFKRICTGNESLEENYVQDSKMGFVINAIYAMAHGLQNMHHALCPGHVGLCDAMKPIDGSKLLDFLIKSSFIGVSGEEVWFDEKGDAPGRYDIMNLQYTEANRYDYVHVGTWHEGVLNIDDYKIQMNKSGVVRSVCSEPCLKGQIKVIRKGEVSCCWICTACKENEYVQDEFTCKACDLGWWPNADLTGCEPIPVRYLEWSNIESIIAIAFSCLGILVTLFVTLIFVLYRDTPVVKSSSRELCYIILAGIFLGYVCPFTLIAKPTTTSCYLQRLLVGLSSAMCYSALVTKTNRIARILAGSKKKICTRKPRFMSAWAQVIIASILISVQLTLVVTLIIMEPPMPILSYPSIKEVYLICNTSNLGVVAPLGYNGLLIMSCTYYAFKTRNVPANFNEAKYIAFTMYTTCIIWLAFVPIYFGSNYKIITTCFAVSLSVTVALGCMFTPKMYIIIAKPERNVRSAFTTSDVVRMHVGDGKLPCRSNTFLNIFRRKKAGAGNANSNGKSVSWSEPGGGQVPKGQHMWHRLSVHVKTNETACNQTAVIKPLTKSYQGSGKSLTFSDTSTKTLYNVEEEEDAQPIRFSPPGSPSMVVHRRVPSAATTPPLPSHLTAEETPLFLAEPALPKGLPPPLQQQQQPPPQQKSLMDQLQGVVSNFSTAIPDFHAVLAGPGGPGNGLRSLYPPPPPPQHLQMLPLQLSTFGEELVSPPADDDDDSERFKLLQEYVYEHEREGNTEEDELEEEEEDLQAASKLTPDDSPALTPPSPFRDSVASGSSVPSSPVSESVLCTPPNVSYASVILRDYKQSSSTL
T1 sequence (Q14833 whole entry): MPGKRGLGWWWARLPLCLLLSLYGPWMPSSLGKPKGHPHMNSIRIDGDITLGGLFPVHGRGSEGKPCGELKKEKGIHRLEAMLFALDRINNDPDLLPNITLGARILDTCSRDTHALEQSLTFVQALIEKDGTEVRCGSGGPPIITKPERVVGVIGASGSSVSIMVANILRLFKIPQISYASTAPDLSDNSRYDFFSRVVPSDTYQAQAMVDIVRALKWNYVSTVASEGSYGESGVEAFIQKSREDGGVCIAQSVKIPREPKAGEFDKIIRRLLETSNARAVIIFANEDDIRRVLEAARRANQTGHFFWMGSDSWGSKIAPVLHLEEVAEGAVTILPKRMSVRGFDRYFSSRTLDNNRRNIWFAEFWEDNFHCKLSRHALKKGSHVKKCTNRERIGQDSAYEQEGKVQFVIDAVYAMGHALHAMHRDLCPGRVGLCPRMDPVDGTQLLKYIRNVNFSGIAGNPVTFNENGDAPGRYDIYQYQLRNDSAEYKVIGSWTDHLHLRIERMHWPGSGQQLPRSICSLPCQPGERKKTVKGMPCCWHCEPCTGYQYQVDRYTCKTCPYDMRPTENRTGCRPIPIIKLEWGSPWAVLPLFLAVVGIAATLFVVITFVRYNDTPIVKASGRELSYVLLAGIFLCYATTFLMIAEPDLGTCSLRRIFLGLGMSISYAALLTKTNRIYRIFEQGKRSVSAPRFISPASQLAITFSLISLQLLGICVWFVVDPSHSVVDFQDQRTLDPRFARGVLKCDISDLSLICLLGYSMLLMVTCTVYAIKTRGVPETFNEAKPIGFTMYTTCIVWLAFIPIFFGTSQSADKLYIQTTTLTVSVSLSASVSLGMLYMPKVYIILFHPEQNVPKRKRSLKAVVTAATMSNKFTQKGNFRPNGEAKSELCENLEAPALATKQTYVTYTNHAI
T2 sequence (P48039 whole entry): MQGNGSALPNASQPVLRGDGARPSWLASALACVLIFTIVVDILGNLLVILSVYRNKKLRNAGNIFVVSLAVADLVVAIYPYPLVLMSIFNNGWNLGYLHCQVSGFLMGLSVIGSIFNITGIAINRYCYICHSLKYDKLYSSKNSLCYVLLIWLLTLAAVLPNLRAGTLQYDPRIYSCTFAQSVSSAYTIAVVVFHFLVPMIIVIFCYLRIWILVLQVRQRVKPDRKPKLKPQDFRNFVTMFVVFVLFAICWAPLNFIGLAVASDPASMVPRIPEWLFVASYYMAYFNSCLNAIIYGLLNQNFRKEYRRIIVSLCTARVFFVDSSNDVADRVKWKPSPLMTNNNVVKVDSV

For `c1csc(-n2cc(-c3ccnc4ccccc34)cn2)c1`, the Emax [1] was 52% and the pEC50 [2] was 5.37.
In the case of `CCNC(=O)Oc1ccc2c(-c3cnn(-c4ccccc4)c3)ccnc2c1`, the Emax [1] was 86% and the pEC50 [2] was 5.00.
With `c1ccc(-n2cc(-c3ccnc4ccccc34)cn2)cc1` the Activity [3] was “inactive”, the Activity [4] was “inactive” and the Drug uptake (Brain [5]) was 5055 ng/g. For the same compound, the solubility kinetic [6] was 150 µM (≈ 40.7 µg/mL), the Kp [7] was 2.7 and the inhibition at 5 µM (CYP3A4) was 38%. The Activity [8] was “inactive”, the Fu (Brain [9]) was 0.7% and the pIC50 [10] was 5.60. For the same compound, the pIC50 [11] was 5.51, the Activity [12] was “inactive” and the Emax [13] was 84%. The Activity [14] was “inactive”, the Activity [15] was “inactive” and the Activity [16] was “inactive”. For the same compound, the inhibition at 5 µM (CYP2C9) was 48%, the Emax [1] was 105% and the Activity [17] was “inactive”. The Activity [18] was “inactive”, the solubility kinetic [19] was 21 µM (≈ 5.7 µg/mL) and the Cp (Plasma) was 1886 ng/mL. For the same compound, the logD [20] was 3.9, the Activity [21] was “inactive” and the Activity [22] was “inactive”. For the same compound, the Activity [23] was “inactive”, the Ratio [24] was 12 and the Activity [25] was “inactive”. For the same compound, the inhibition at 5 µM (CYP2B6) was 56%, the Activity [26] was “inactive” and the Activity [27] was “inactive”. For the same compound, the fraction unbound [28] was 0.004, the Drug uptake (Cerebrospinal fluid) was 72 ng/mL and the Activity [29] was “inactive”. The pEC50 [30] was 6.04, the Activity [31] was “inactive” and the Activity [32] was “inactive”. For the same compound, the pEC50 [2] was 6.66, the Activity [33] was “inactive” and the pIC50 [34] was 5.80. For the same compound, the Activity [35] was “inactive”, the Activity [36] was “inactive” and the CL (Rattus norvegicus) was 550 mL/min.
`c1ccc(-n2cc(-c3n[nH]c4ccccc34)cn2)cc1` showed an Emax [1] of 42% and a pEC50 [2] of 5.62.
With `Cc1nn(-c2ccccc2)c(C)c1-c1ccnc2ccccc12` the Emax [1] was 150% and the pEC50 [2] was 6.08.
In the case of `Fc1ccccc1-n1cc(-c2ccnc3ccccc23)cn1`, the Emax [1] was 70% and the pEC50 [2] was 5.96.
With `c1ccc(-n2cc(-c3ccnc4cc(OCCN5CCOCC5)ccc34)cn2)cc1` the Emax [1] was 39% and the pEC50 [2] was 5.74.
`c1ccc(-n2cc(-c3ccnc4[nH]ccc34)cn2)cc1` gave an Emax [1] of 47% and a pEC50 [2] of 5.57.
`Cc1nn(-c2ccccc2)cc1-c1ccnc2ccccc12` showed an Emax [1] of 130% and a pEC50 [2] of 6.32.
`c1ccc(-n2cc(-c3c[nH]c4ccccc34)cn2)cc1` gave an Emax [1] of 44% and a pEC50 [2] of 5.60.
For `Fc1ccc2c(-c3cnn(-c4ccccc4)c3)ccnc2c1`, the Emax [1] was 120% and the pEC50 [2] was 6.14.
For `O=C(Oc1ccc2c(-c3cnn(-c4ccccc4)c3)ccnc2c1)N1CCCCC1`, the Emax [1] was 130% and the pEC50 [2] was 6.72.
With `c1ccc(-n2cc(-c3ccnc4c3CCC4)cn2)cc1` the Emax [1] was 65% and the pEC50 [2] was 5.64.
`COCCOc1ccc2c(-c3cnn(-c4ccccc4)c3)ccnc2c1` showed an Emax [1] of 110% and a pEC50 [2] of 6.41.
Work on `O=C(Oc1ccc2c(-c3cnn(-c4ccccc4)c3)ccnc2c1)N1CCOCC1` yielded an Emax [1] of 84% and a pEC50 [2] of 6.05.
In the case of `c1ccc(-n2cc(-c3ncnc4ccccc34)cn2)cc1`, the Emax [1] was 35% and the pEC50 [2] was 5.46.
For `COCCCOc1ccc2c(-c3cnn(-c4ccccc4)c3)ccnc2c1`, the Emax [1] was 88% and the pEC50 [2] was 6.60.
For `Oc1ccc2c(-c3cnn(-c4ccccc4)c3)ccnc2c1`, the Emax [1] was 4% and the pEC50 [2] was less than 5.00.
In the case of `Fc1ccc(-n2cc(-c3ccnc4ccccc34)cn2)cc1`, the Emax [1] was 110% and the pEC50 [2] was 5.54.
Work on `FC(F)(F)c1ccc2c(-c3cnn(-c4ccccc4)c3)ccnc2c1` yielded an Emax [1] of 140% and a pEC50 [2] of 6.26.
In the case of `CC(=O)N1CCN(CCOc2ccc3c(-c4cnn(-c5ccccc5)c4)ccnc3c2)CC1`, the Emax [1] was 75% and the pEC50 [2] was 6.16.
`CCOc1ccc2c(-c3cnn(-c4ccccc4)c3)ccnc2c1` gave an Emax [1] of 93% and a pEC50 [2] of 6.27.
